{
  "source": "patent US11364256B2",
  "about": "“Viral inhibition” (Monash University, priority 2020, dated 2022)",
  "system": "SARS-CoV-2 clinical isolate Australia/VIC01/2020",
  "experiment": "Multidose treatment of SARS-CoV-2 infected Vero/hSLAM or CALU-3 cells, viral load by real-time PCR",
  "type": "cell-based",
  "settings": "drug replaced at 8, 24, 32 and 48 h, Vero/hSLAM or CALU-3, MOI 0.01",
  "procedure": "Vero/hSLAM cells (FIG. 4, panels A/C) or CALU-3 (FIG. 4, panels B/D) cells were infected with SARS-CoV-2 clinical isolate Australia/VIC01/2020 (MOI=0.01) for 2 h prior to addition of vehicle (DMSO), Ivermectin (A/B) or Moxidectin (C/D) at the concentrations indicated in FIG. 4. Supernatant was harvested at 8, 24, 32 and 48 h and replaced with fresh media containing the same concentration of drug or DMSO. Samples were quantitated for viral load using real-time PCR. Results represent mean±SD (n=6) relative to DMSO alone under the same conditions. Three parameter dose response curves were fitted using GraphPad prism. The data presented in FIG. 4 are single typical graphs from a series of two similar experiments.",
  "data": [
    {"substance": "ivermectin", "values": [
      {"measurement": "effect of multidose treatment on SARS-CoV-2 anti-viral activity", "value": "enhances SARS-CoV-2 anti-viral activity compared to single treatment"}
    ]}
  ]
}
